Source: patent US9724383B2, “Stabilized trimeric HIV-1 GP41 fusion inhibitor polypeptides comprising the N-terminal heptad repeat (NHR) and foldon (FD) trimerization motif” (New York Blood Center, Inc., priority 2009, dated 2017)
“Also recorded” adds a separate entry of the source. Read-outs that look alike come from different tables or passages of the source. Peptide text beside a SMILES is read from it.

Columns and labels:
[1] = molecular target: CHR-peptide C34 (Human immunodeficiency virus type 1 group M subtype B, UniProt P04578); format: binding, HIV-1; settings: CD spectroscopy
Procedure: (§1) All the N-peptides were diluted in ddH2O (pH 7.0) and all the C-peptides or the mixture of the N- and C-peptides were diluted in 50 mM sodium phosphate and 150 mM NaCl (PBS, pH 7.2) to a final concentration of 10 μM. The individual peptides and their mixtures were incubated in a 37° C. water bath for 0.5 h before testing. […] The α-helicity was calculated from the CD signal by dividing the mean residue ellipticity at 222 nm by the value expected for 100% helix formation (i.e., 33,000° cm^2 dmol^−1) according to previous studies. Thermal denaturation of the samples was monitored at 222 nm by applying a temperature gradient from 20° C. to 98° C. with a 2-degree interval, an equilibration time of 1.5 min, and an averaging time of 60 s. The midpoint of the thermal unfolding transition (Tm) values was calculated using Jasco software utilities as described previously.

[2] = system: HIV-1IIIB (subtype B, X4)
Procedure: (§2) In brief, 1×10^4 MT-2 cells were infected with HIV-1IIIB in 200 μl RPMI 1640 medium containing 10% FBS in the presence or absence of testing compounds at graded concentrations overnight. Then the culture supernatants were removed and fresh media containing no testing compounds were added. On the fourth day post-infection, 100 μl of culture supernatants were collected from each well, mixed with equal volumes of 5% Triton X-100 and assayed for p24 antigen, which was quantitated by ELISA. Briefly, wells of polystyrene plates (Immulon 1B, Dynex Technology, Chantilly, Va.) were coated with HIV immunoglobulin (HIVIG), which was prepared from plasma of HIV-seropositive donors with high neutralizing titers against HIV-1IIIB, in 0.085 M carbonate-bicarbonate buffer (pH 9.6) at 4° C. overnight, followed by washes with washing buffer (0.01M PBS containing 0.05% Tween-20) and blocking with PBS containing 1% dry fat-free milk (Bio-Rad Inc., Hercules, Calif.). Virus lysates were added to the wells and incubated at 37° C. for 1 h. […] Reactions were terminated by addition of 1N H2SO4. Absorbance at 450 nm was recorded in an ELISA reader (Ultra 386, TECAN, Research Triangle Park, NC). Recombinant protein p24 purchased from US Biological (Swampscott, Mass.) was included for establishing standard dose response curves. […] The percentage of inhibition of p24 production was calculated as previously described.

[3] = CD spectroscopy of secondary structure (α-helicity) of the individual peptides; format: physicochemical; settings: CD at 222 nm, 10 μM, ddH2O pH 7.0; spectrum of free Fd subtracted
Procedure: as §1

[4] = system: HIV-1NL4-3(36G) V38A/N42D; settings: T20-resistant
Procedure: (§3) In brief, 1×10^4 MT-2 cells were infected with HIV-1IIIB in 200 μl RPMI 1640 medium containing 10% FBS in the presence or absence of testing compounds at graded concentrations overnight. Then the culture supernatants were removed and fresh media containing no testing compounds were added. On the fourth day post-infection, 100 μl of culture supernatants were collected from each well, mixed with equal volumes of 5% Triton X-100 and assayed for p24 antigen, which was quantitated by ELISA. Briefly, wells of polystyrene plates (Immulon 1B, Dynex Technology, Chantilly, Va.) were coated with HIV immunoglobulin (HIVIG), which was prepared from plasma of HIV-seropositive donors with high neutralizing titers against HIV-1IIIB, in 0.085 M carbonate-bicarbonate buffer (pH 9.6) at 4° C. overnight, followed by washes with washing buffer (0.01M PBS containing 0.05% Tween-20) and blocking with PBS containing 1% dry fat-free milk (Bio-Rad Inc., Hercules, Calif.). Virus lysates were added to the wells and incubated at 37° C. for 1 h. […] Reactions were terminated by addition of 1N H2SO4. Absorbance at 450 nm was recorded in an ELISA reader (Ultra 386, TECAN, Research Triangle Park, NC). Recombinant protein p24 purchased from US Biological (Swampscott, Mass.) was included for establishing standard dose response curves. Each sample was tested in triplicate. The percentage of inhibition of p24 production was calculated as previously described.
(§4) Mutations in the NHR region of HIV-1 virus NL4-3 cause genetic resistance to T20.

[5] = system: HIV-1NL4-3(36G) N42T/N43K; settings: T20-resistant
Procedure: as §3, §4

[6] = system: HIV-1NL4-3(36G) N42S; settings: T20-sensitive
Procedure: as §3, §4

[7] = system: HIV-1NL4-3(36G) V38E/N42S; settings: T20-resistant
Procedure: as §3, §4

[8] = system: HIV-1IIIB-mediated cell-cell fusion
Procedure: Briefly, H9/HIV-1IIIB cells were pre-labeled with a fluorescent dye, Calcein AM (Molecular Probes, Inc., Eugene, Oreg.), and incubated with a testing compound at a graded concentration at 37° C. for 30 min in a 96-well cell culture plate. Then the CD4^+ MT-2 cells were added to the H9/HIV-1IIIB cells at a ratio of 10:1, followed by incubation at 37° C. for 2 hrs. The fused and unfused Calcein-labeled HIV-1-infected cells were counted under an inverted fluorescence microscope (Zeiss, Germany) with an eyepiece micrometer disc. The percent inhibition of cell fusion by a compound and the EC50 and EC90 values were calculated using the software CalcuSyn.

[9] = system: HIV-1 Bal (subtype B, R5); format: cell-based
Procedure: The cells were harvested and lysed on the fourth day post-infection with 50p1 of lysing reagent. The luciferase activity was analyzed using a luciferase kit (Promega, Madison, Wis.) and a luminometer (Ultra 386) according to the manufacturer's instructions. The percent inhibition of luciferase activity was calculated.

[10] = system: HIV-1IIIB; test: Proteinase K digestion, remaining antiviral activity against HIV-1IIIB infection; settings: 1 μU/ml Proteinase K in PBS, 37° C., 3 hrs
Procedure: as §2

[11] = molecular target: T1, Proteinase K (Parengyodontium album, UniProt P06873); test: Proteinase K digestion, residual peptide by direct ELISA; format: in vitro ADME; settings: 1 μU/ml Proteinase K in PBS, 37° C.
T1 construct: purchased Sigma
Text: T20 was used as a control. […] Samples were collected at different times and centrifuged immediately.

[12] = system: HIV-1 93IN101 (subtype C, R5); format: cell-based
Procedure: For inhibition of infection by the primary HIV-1 isolate 93IN101 (subtype C, R5), the peripheral blood mononuclear cells (PBMCs) were isolated from the blood of healthy donors using a standard density gradient (Histopaque-1077, Sigma) centrifugation. After incubation at 37° C. for 2 h, the nonadherent cells were collected and resuspended at 5×10^5/ml in RPMI medium 1640 containing 10% FBS, 5 μg of phytohemagglutinin (PHA)/ml, and 100 U of interleukin-2/ml, followed by incubation at 37° C. for 3 days. The PHA-stimulated cells were infected with the primary HIV-1 isolate at a multiplicity of infection (MOI) of 0.01 in the absence or presence of N-Fd peptides at graded concentrations. The supernatants were collected on the 7th day post-infection and tested for p24 antigen by ELISA.

[13] = SDS-PAGE analysis of trimer stability; format: physicochemical; settings: 2% SDS sample buffer, room temperature or boiled 5 min
Procedure: Purified N36Fd and N28Fd were analyzed by SDS-PAGE. […] The sample was boiled for 5 min or kept at room temperature (RT) before loading onto a 10-20% Tricine-Glycine gel (Invitrogen). The electrophoresis was conducted in SDS-PAGE running buffer with 125V constant voltage at 4° C. The gels were stained with SimplyBlue SafeStain (Invitrogen).

[14] = system: HIV-1-mediated fusion; settings: background statement; cited from earlier work

T1 sequence (P06873 106-384): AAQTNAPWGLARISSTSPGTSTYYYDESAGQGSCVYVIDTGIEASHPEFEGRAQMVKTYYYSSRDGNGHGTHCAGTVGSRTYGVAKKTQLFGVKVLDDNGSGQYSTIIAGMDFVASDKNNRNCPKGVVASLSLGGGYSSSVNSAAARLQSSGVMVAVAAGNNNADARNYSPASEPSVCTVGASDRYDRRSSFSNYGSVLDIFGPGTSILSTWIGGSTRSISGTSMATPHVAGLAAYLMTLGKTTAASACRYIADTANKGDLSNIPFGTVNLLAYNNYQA
Sequence of CHR-peptide C34 (P04578 628-661): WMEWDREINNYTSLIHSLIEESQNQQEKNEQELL

Compound | complex formation with C34 [1] | IC50 ([2]; 1IIIB (subtype B, X4)) [nM] | α-helicity of the N36 or N28 portion in N36Fd or N28Fd [3] [%] | IC50 [4] [nM] | IC50 [5] [nM] | IC50 [6] [nM] | IC50 [7] [nM] | fold more potent than the free N-peptide in inhibiting cell-cell fusion ([8]; N36Fd vs N36, N28Fd vs N28) [fold] | IC50 ([8]; read-out: IC50, inhibition of HIV-1-induced cell-cell fusion, H9/HIV-1IIIB + MT-2 cells, 2 hrs) [nM] | IC50 ([9]; TZM-bl cells, luciferase, read-out: IC50 against infection by HIV-1 Bal) [nM] | remaining antiviral activity against HIV-1IIIB infection, % of original [10] | residual amount, % of original, detected by ELISA ([11]; 3 hrs) [%] | IC50 ([12]; PHA-stimulated PBMCs, p24 on day 7, read-out: IC50 against infection by HIV-1 93IN101) [nM] | trimer stability in SDS-PAGE [13] | IC50 ([2]; read-out: IC50, inhibition of HIV-1IIIB replication (p24), MT-2 cells, day 4 post-infection) [nM] | IC50 ([9]; Bal (subtype B, R5)) [nM] | inhibition of HIV-1-mediated fusion [14] | remaining at 3 h ([11]; read-out: residual amount, % of original, detected by ELISA) [%] | IC50 ([12]; 93IN101 (subtype C, R5, 2 h)) [nM]
CC[C@H](C)[C@H](N)C(=O)N[C@@H](CCC(=O)O)C(=O)N[C@@H](C)C(=O)N[C@@H](CCC(N)=O)C(=O)N[C@@H](CCC(N)=O)C(=O)N[C@@H](Cc1c[nH]cn1)C(=O)N[C@@H](CC(C)C)C(=O)N[C@@H](CC(C)C)C(=O)N[C@@H](CCC(N)=O)C(=O)N[C@@H](CC(C)C)C(=O)N[C@H](C(=O)N[C@H](C(=O)N[C@@H](Cc1c[nH]c2ccccc12)C(=O)NCC(=O)N[C@H](C(=O)N[C@@H](CCCCN)C(=O)N[C@@H](CCC(N)=O)C(=O)N[C@@H](CC(C)C)C(=O)N[C@@H](CCC(N)=O)C(=O)N[C@@H](C)C(=O)N[C@@H](CCCNC(=N)N)C(=O)N[C@H](C(=O)N[C@@H](CC(C)C)C(=O)N[C@@H](C)C(=O)N[C@H](C(=O)N[C@@H](CCC(=O)O)C(=O)N[C@@H](CCCNC(=N)N)C(=O)N[C@@H](Cc1ccc(O)cc1)C(=O)O)C(C)C)[C@@H](C)CC)[C@@H](C)CC)C(C)C)[C@@H](C)O [N28] (H-IEAQQHLLQLTVWGIKQLQARILAVERY-OH; N-terminus and C-terminus assumed) | could not form a complex with C34 | > 3000 | – | – | – | – | – | – | – | – | – | – | – | – | – | – | – | – | –
IEAQQHLLQLTVWGIKQLQARILAVERYGYIPEAPRDGQAYVRKDGEWVLLSTFL [N28Fd] | – | – | 30.9 | 29 ± 0.82 | 30.6 ± 6.07 | 26.95 ± 0.02 | 46.4 ± 4.49 | > 138 | 21 | 9.8 | 97% | 84 | 1.27 | SDS-resistant but heat-sensitive trimer; also recorded: more stable than N36Fd under SDS conditions | 39 | – | – | – | –
enfuvirtide | – | – | – | 2300 | 374 | 30 | 1390 | – | – | – | completely lost its anti-HIV-1 activity | – | – | – | – | 3.4 | low nanomolar level | 17 | 1.75
